Like-named read-outs stand apart in the source and are kept apart here.
Key:
[1] = test system: Pseudomonas aeruginosa; assay: MIC, 25 ocular isolates, broth microdilution (Example 8); format: cell-based
Outline: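 Broth microdilution in Mueller-Hinton broth, polypropylene plates, inoculum from 0.5 McFarland suspension diluted 0.05 ml into 5 ml; final test agent 64–0.0625 μg/ml (128–0.125 μg/ml for P. aeruginosa) in 0.01% acetic acid, 0.2% BSA diluent. Incubated 37° C overnight; MIC read visually as lowest concentration inhibiting visible growth.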

[2] = test system: S. aureus ATCC 27660; assay: MIC, control bacteria (Example 8); format: cell-based; conditions: Control Bacteria S. aureus ATCC 27660
Experimental: • Mueller-Hinton Broth in tubes was inoculated with 25 ocular isolates of Staphylococcus aureus fluoroquinolone-susceptible, Staphylococcus aureus fluoroquinolone-resistant, Staphylococcus epidermidis (Coagulase-negative Staphylococcus) fluoroquinolone-susceptible, Staphylococcus epidermidis (Coagulase-negative Staphylococcus) fluoroquinolone-resistant, Pseudomonas aeruginosa and Serratia marcescens, plus two controls (Staphylococcus aureus and E. coli) and incubated at 37° C. overnight on a shaker set at 250 rpm.
Control Bacteria—The two control bacteria (Staphylococcus aureus and E. coli) were treated as above.
Control Bacteria Set #1—this set of control bacteria were treated as the Streptococcus pneumoniae, Streptococcus viridans and Moraxella species (including Moraxella catarrhalis) test isolates above; the control bacteria underwent the same conditions as the test Streptococcus pneumoniae, Streptococcus viridans and Moraxella species (including Moraxella catarrhalis) isolates. This set of control bacteria was to determine whether there was a difference in the MICs by performing the MIC determinations in 2% lysed horse red blood cells with the standard method performed in Mueller-Hinton broth.
Control Bacteria Set #2—the control bacteria were added to 5 ml of Mueller-Hinton Broth without the 2% lysed horse red blood cells to achieve the standard inoculum concentration. This set of control bacteria is the normal control to determine whether the compounds are at the target MICs.
Control Bacteria Set #1—this set of control bacteria were treated as the Haemophilus influenzae test isolates above; the control bacteria underwent the same conditions as the test Haemophilus influenzae isolates. This set of control bacteria is to determine whether there was a difference in the MICs by performing the MIC determinations in HTM broth with the standard method performed in Mueller-Hinton broth.
Control Bacteria Set #2—the control bacteria were added to 5 ml of Mueller-Hinton Broth to achieve the standard inoculum concentration. This set of control bacteria is the normal control to determine whether the compounds are at the target MICs.
Ninety μl of the bacterial suspensions was dispensed in each well from column 1 to column 12. Each bacterial isolate was placed in one row of a 96 well polypropylene plate containing the test agents. The plates were placed on shaker at 15 minutes at room temperature, and then incubated at 37° C. overnight. MICs were determined visually as the lowest concentration of drug that inhibits visible bacterial growth.

N=C(N)NCCCCC(=O)Nc1cc(C(F)(F)F)cc(NC(=O)c2cnc(C(=O)Nc3cc(C(F)(F)F)cc(NC(=O)CCCCNC(=N)N)c3SCCN)cn2)c1SCCN [Oligomer 5]
64 µg/mL: MIC50 ([1]; 25 isolates, Row 13) | MIC ([1]; Pseudomonas aeruginosa, 25 ocular isolates, read-out: Median MIC) | MIC ([1]; Pseudomonas aeruginosa, isolate 2—K1668, read-out: MIC) | MIC ([1]; Pseudomonas aeruginosa, isolate 3—K1662, read-out: MIC) | MIC ([1]; Pseudomonas aeruginosa, isolate 4—K1657, read-out: MIC) | MIC ([1]; Pseudomonas aeruginosa, isolate 6—K1649, read-out: MIC) | MIC ([1]; Pseudomonas aeruginosa, isolate 10—K1633, read-out: MIC) | MIC ([1]; Pseudomonas aeruginosa, isolate 11—K1632, read-out: MIC) | MIC ([1]; Pseudomonas aeruginosa, isolate 12—K1631, read-out: MIC) | MIC ([1]; Pseudomonas aeruginosa, isolate 13—K1629, read-out: MIC) | MIC ([1]; Pseudomonas aeruginosa, isolate 14—K1627, read-out: MIC) | MIC ([1]; Pseudomonas aeruginosa, isolate 16—K1625, read-out: MIC) | MIC ([1]; Pseudomonas aeruginosa, isolate 20—K1594, read-out: MIC) | MIC ([1]; Pseudomonas aeruginosa, isolate 24—K1577, read-out: MIC) | MIC ([1]; Pseudomonas aeruginosa, n=25 per group, read-out: Median MIC) | MIC50 ([1]; Pseudomonas aeruginosa, 25 isolates, Summary of Results, read-out: MIC50) | MIC ([1]; Pseudomonas aeruginosa, 25 isolates, Summary of Results, read-out: Median MIC) | MIC50 ([1]; n=25 per group)
32 µg/mL: MIC ([1]; Pseudomonas aeruginosa, isolate 1—K1673, read-out: MIC) | MIC ([1]; Pseudomonas aeruginosa, isolate 18—K1613, read-out: MIC) | MIC ([1]; Pseudomonas aeruginosa, isolate 23—K1580, read-out: MIC)
increase or have no effect: Decrease of activity by addition of 2% lysed horse red blood cells to Mueller-Hinton broth [2]
> 128 µg/mL: MIC ([1]; Pseudomonas aeruginosa, isolate 7—K1564, read-out: MIC)
128 µg/mL: MIC ([1]; Pseudomonas aeruginosa, isolate 5—K1651, read-out: MIC) | MIC ([1]; Pseudomonas aeruginosa, isolate 9—K1634, read-out: MIC) | MIC ([1]; Pseudomonas aeruginosa, isolate 15—K1626, read-out: MIC) | MIC ([1]; Pseudomonas aeruginosa, isolate 17—K1562, read-out: MIC) | MIC ([1]; Pseudomonas aeruginosa, isolate 19—K1553, read-out: MIC) | MIC ([1]; Pseudomonas aeruginosa, isolate 21—K1588, read-out: MIC) | MIC ([1]; Pseudomonas aeruginosa, isolate 22—K1554, read-out: MIC) | MIC ([1]; Pseudomonas aeruginosa, isolate 25—K1576, read-out: MIC) | MIC90 ([1]; Pseudomonas aeruginosa, 25 isolates, Summary of Results, read-out: MIC90) | MIC90 ([1]; n=25 per group)
4 µg/mL: MIC ([1]; Pseudomonas aeruginosa, isolate 8—K1636, read-out: MIC)
4 to 256 µg/mL: Range of MICs ([1]; 25 isolates, Summary of Results, >128 was Replaced with 256) | Range of MICs ([1]; n=25 per group)

From patent US20130065818A1, “Arylamide Compounds And Compositions And Uses Thereof” (POLYMEDIX, priority 2006, published 2013)
